Experimental data published in patent US8673942B2, “Fused ring compounds and use thereof” (Takeda Pharmaceutical Company Limited, priority 2008, dated 2014).

Columns and labels:
[1] = target: T1, human liver GK (GST-hLGK1) (Homo sapiens, UniProt P35557); experiment: Measurement of GK activation value; type: biochemical; details: GST-hLGK1 6 μg/mL, 5 mmol/L D-glucose, 50 μmol/L Mant-ATP, 60 min at 37° C.; concentration at midpoint between maximum activity value and control activity value
T1 construct: with a BamHI site added to immediately before the initiation codon; made in house; host or cells: Escherichia coli BL21 (Stratagene), plasmid pGEX6P-2/hLGK1
T1 sequence (P35557 1-464 isoform P35557-3): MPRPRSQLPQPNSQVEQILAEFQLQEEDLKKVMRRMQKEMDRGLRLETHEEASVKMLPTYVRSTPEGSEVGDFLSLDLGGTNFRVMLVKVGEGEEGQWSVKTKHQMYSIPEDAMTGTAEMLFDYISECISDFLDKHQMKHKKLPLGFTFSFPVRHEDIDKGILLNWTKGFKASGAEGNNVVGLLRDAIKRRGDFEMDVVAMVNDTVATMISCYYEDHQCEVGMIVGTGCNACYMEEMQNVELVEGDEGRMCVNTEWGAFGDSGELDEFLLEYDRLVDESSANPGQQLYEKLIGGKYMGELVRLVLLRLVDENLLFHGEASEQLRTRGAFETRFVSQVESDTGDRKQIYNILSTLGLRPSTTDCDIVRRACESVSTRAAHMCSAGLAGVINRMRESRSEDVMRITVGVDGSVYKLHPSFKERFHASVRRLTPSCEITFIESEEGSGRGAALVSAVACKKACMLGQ
Protocol: GK enzyme reactions were performed in 50 mmol/L HEPES pH 7.4, 200 mmol/L KCl, 5 mmol/L MgCl2, 2 mmol/L DTT, containing 50 μmol/L 2′-(or -3′)-O—(N-methylanthraniloyl)adenosine 5′-triphosphate (Mant-ATP) (Jena Bioscience GmbH), 5 mmol/L D-glucose, 5% DMSO and 6 μg/mL GST-hLGK1 obtained in Reference Example 2A in a total volume 50 μL. The reactions were performed in 384 well black plates (Nalge Nunc International K.K.). Prior to the reaction, the enzyme and test compound were incubated for 10 min at 37° C., and 25 mM D-glucose solution (10 μL) was added to start the reaction.
After the incubation for 60 min at 37° C., the reaction was quenched by adding 25 μL of a quenching solution (containing 200 mM HEPES (pH 7.4), 20 mM MgCl2, 200 mM EDTA, 0.03% Triton-X 100, 0.3% Coating 3 reagent (Caliper Life Sciences, Inc.)).
Mant-ATP (substrate, 2′- (or -3′)-O—(N-methylanthraniloyl) adenosine 5′-triphosphate) and Mant-ADP (reaction resultant product) were separated from each well after the reaction by a microchip type capillary electrophoresis apparatus 250 HTS (Caliper Life Sciences, Inc.). The reaction rate [(reaction resultant product peak height)/(reaction resultant product peak height+substrate peak height)×100(%)] was calculated from the ratio of the substrate peak height and reaction resultant product peak height obtained by fluorescence detection (excitation wavelength 355 nm, measurement wavelength 460 nm) and used as the index of GK activity.
As a control group, the reaction rate was calculated in the same manner as above without the test compounds.
The percentage obtained by dividing the reaction rate of the well added with each concentration of the test compound (test compound addition group) by the reaction rate of the control group was taken as the GK activity value, and the concentration of the test compound at the midpoint between the maximum activity value of the test compound addition group and the control group activity value is shown as EC50 value.

| SMILES | EC50 [1] [nM] | melting point [°C] |
| --- | --- | --- |
| CC(CO)Oc1cc(Oc2ccc(S(C)(=O)=O)cc2)cc2cc(C3=NCC(CC(N)=O)S3)[nH]c12 (centres unmarked) [Example 17, 2-(2-{7-(2-Hydroxy-1-methylethoxy)-5-[4-(methylsulfonyl)phenoxy]-1H-indol-2-yl}-4,5-dihydro-1,3-thiazol-5-yl)acetamide] | 48 | 137 to 142 |
| CC(CO)Oc1cc(Oc2ccc(S(C)(=O)=O)cc2)cc2cc(C3=NCC(CCO)S3)[nH]c12 (centres unmarked) [Example 16, 2-({2-[5-(2-Hydroxyethyl)-4,5-dihydro-1,3-thiazol-2-yl]-5-[4-(methylsulfonyl)phenoxy]-1H-indole-7-yl}oxy)propan-1-ol] | 33 | 165 to 169 |
| CS(=O)(=O)c1ccc(Oc2cc(OCc3ccccc3)c3[nH]c(C4=NCC(CC(=O)O)S4)cc3c2)cc1 (centres unmarked) [Example 3, (2-{7-(Benzyloxy)-5-[4-(methylsulfonyl)phenoxy]-1H-indol-2-yl}-4,5-dihydro-1,3-thiazol-5-yl)acetic acid] | 55 | 218 to 219 |
| Cn1ccnc1COc1cc(Oc2ccc(S(C)(=O)=O)cc2)cc2cc(C3=NCC(CC(N)=O)S3)[nH]c12 (centres unmarked) [Example 11, 2-(2-{7-[(1-Methyl-1H-imidazol-2-yl)methoxy]-5-[4-(methylsulfonyl)phenoxy]-1H-indol-2-yl}-4,5-dihydro-1,3-thiazol-5-yl)acetamide] | 52 | 130 to 131 |
| CNC(=O)CC1CN=C(c2cc3cc(Oc4ccc(S(C)(=O)=O)cn4)cc(OC(COC)COC)c3[nH]2)S1 (centres unmarked) [Example 46, 2-[2-(7-[2-Methoxy-1-(methoxymethyl)ethoxy]-5-{[5-(methylsulfonyl)pyridin-2-yl]oxy}-1H-indol-2-yl)-4,5-dihydro-1,3-thiazol-5-yl]-N-methylacetamide] | – | 123 to 125 |
| CNC(=O)CC1CN=C(c2cc3cc(Oc4ccc(S(C)(=O)=O)cn4)cc(OC)c3[nH]2)S1 (centres unmarked) [Example 42, 2-[2-(7-Methoxy-5-{[5-(methylsulfonyl)pyridin-2-yl]oxy}-1H-indol-2-yl)-4,5-dihydro-1,3-thiazol-5-yl]-N-methylacetamide] | – | 207 to 209 |
| CS(=O)(=O)c1ccc(Oc2cc(OCc3ccccc3)c3[nH]c(-c4ncc(CO)s4)cc3c2)cc1 [Example 23, (2-{7-(Benzyloxy)-5-[4-(methylsulfonyl)phenoxy]-1H-indol-2-yl}-1,3-thiazol-5-yl)methanol] | – | 125 to 126 |
| CS(=O)(=O)c1ccc(Oc2cc(OCc3cccc(Cl)n3)c3[nH]c(C4=NCC(CCO)S4)cc3c2)cc1 (centres unmarked) [Example 6, 2-(2-{7-[(6-Chloropyridin-2-yl)methoxy]-5-[4-(methylsulfonyl)phenoxy]-1H-indol-2-yl}-4,5-dihydro-1,3-thiazol-5-yl)ethanol] | – | 93 to 94 |
| CS(=O)(=O)c1ccc(Oc2cc(OCc3ccccc3)c3[nH]c(C4=NCC(CC(N)=O)S4)cc3c2)cc1 (centres unmarked) [Example 4, 2-(2-{7-(Benzyloxy)-5-[4-(methylsulfonyl)phenoxy]-1H-indol-2-yl}-4,5-dihydro-1,3-thiazol-5-yl)acetamide] | – | 134 to 135 |
| COCC(COC)Oc1cc(Oc2ccc(S(C)(=O)=O)nc2)cc2cc(C3=NCC(CC(N)=O)S3)[nH]c12 (centres unmarked) [Example 35, 2-[2-(7-[2-Methoxy-1-(methoxymethyl)ethoxy]-5-{[6-(methylsulfonyl)pyridin-3-yl]oxy}-1H-indol-2-yl)-4,5-dihydro-1,3-thiazol-5-yl]acetamide] | – | 172 to 173 |

Further lines, results first:

| EC50 [1] [nM] | melting point [°C] | SMILES |
| --- | --- | --- |
| 15 | – | COCC(C)Oc1cc(Oc2ccc(S(C)(=O)=O)cc2)cc2cc(C3=NCC(CCO)S3)[nH]c12 (single isomer, unassigned) [Example 58, 2-(2-{7-(2-Methoxy-1-methylethoxy)-5-[4-(methylsulfonyl)phenoxy]-1H-indol-2-yl}-4,5-dihydro-1,3-thiazol-5-yl)ethanol] |
| 38 | 185 to 186 | COc1cc(Oc2ccc(S(C)(=O)=O)nc2)cc2cc(C3=NCC(CC(=O)NC[C@@H](C)O)S3)[nH]c12 (stereo partly drawn) [Example 81, N-[(2R)-2-Hydroxypropyl]-2-[2-(7-methoxy-5-{[6-(methylsulfonyl)pyridin-3-yl]oxy}-1H-indol-2-yl)-4,5-dihydro-1,3-thiazol-5-yl]acetamide] |
| 42 | 148 to 149 | COc1cc(Oc2ccc(S(C)(=O)=O)nc2)cc2cc(C3=NCC(CC(=O)N4CCOCC4)S3)[nH]c12 (centres unmarked) [Example 82, 7-Methoxy-5-{[6-(methylsulfonyl)pyridin-3-yl]oxy}-2-{5-[2-(morpholin-4-yl)-2-oxoethyl]-4,5-dihydro-1,3-thiazol-2-yl}-1H-indole] |
| 37 | 185 to 186 | COc1cc(Oc2ccc(S(C)(=O)=O)nc2)cc2cc(C3=NCC(CC(=O)NC[C@H](C)O)S3)[nH]c12 (stereo partly drawn) [Example 80, N-[(2S)-2-Hydroxypropyl]-2-[2-(7-methoxy-5-{[6-(methylsulfonyl)pyridin-3-yl]oxy}-1H-indol-2-yl)-4,5-dihydro-1,3-thiazol-5-yl]acetamide] |
| 59 | – | CC(C)Oc1cc(Oc2ccc(S(C)(=O)=O)cn2)cc2cc(C3=NCC(CC(C)(C)O)S3)[nH]c12 (single isomer, unassigned) [Example 65, 2-Methyl-1-{2-[7-(1-methylethoxy)-5-{[5-(methylsulfonyl)pyridin-2-yl]oxy}-1H-indol-2-yl]-4,5-dihydro-1,3-thiazol-5-yl}propan-2-ol] |
| 17 | – | COCC(C)Oc1cc(Oc2ccc(S(C)(=O)=O)cc2)cc2cc(C3=NCC(CCO)S3)[nH]c12 (single isomer, unassigned) [Example 57, 2-(2-{7-(2-Methoxy-1-methylethoxy)-5-[4-(methylsulfonyl)phenoxy]-1H-indol-2-yl}-4,5-dihydro-1,3-thiazol-5-yl)ethanol] |
| 20 | – | CCOc1cc(Oc2ccc(S(C)(=O)=O)nc2)cc2cc(C3=NCC(CC(=O)NC)S3)[nH]c12 (single isomer, unassigned) [Example 98, 2-[2-(7-Ethoxy-5-{[6-(methylsulfonyl)pyridin-3-yl]oxy}-1H-indol-2-yl)-4,5-dihydro-1,3-thiazol-5-yl]-N-methylacetamide] |
| – | 138 to 139 | COCC(C)Oc1cc(Oc2ccc(S(C)(=O)=O)nc2)cc2cc(C3=NCC(CCO)S3)[nH]c12 (centres unmarked) [Example 84, 2-{2-[7-(2-Methoxy-1-methylethoxy)-5-{[6-(methylsulfonyl)pyridin-3-yl]oxy}-1H-indol-2-yl]-4,5-dihydro-1,3-thiazol-5-yl}ethanol] |
| – | 143 to 144 | COCCOc1c(F)c(Oc2ccc(S(C)(=O)=O)nc2)cc2cc(C3=NCC(CC(N)=O)S3)[nH]c12 (centres unmarked) [Example 93, 2-{2-[6-Fluoro-7-(2-methoxyethoxy)-5-{[6-(methylsulfonyl)pyridin-3-yl]oxy}-1H-indol-2-yl]-4,5-dihydro-1,3-thiazol-5-yl}acetamide] |
| – | 107 to 109 | CNC(=O)CC1CN=C(c2cc3cc(Oc4ccc(S(C)(=O)=O)nc4)cc(OC(C)COC)c3[nH]2)S1 (centres unmarked) [Example 87, 2-{2-[7-(2-Methoxy-1-methylethoxy)-5-{[6-(methylsulfonyl)pyridin-3-yl]oxy}-1H-indol-2-yl]-4,5-dihydro-1,3-thiazol-5-yl}-N-methylacetamide] |
| – | 151 to 152 | CNC(=O)CC1CN=C(c2cc3cc(Oc4ccc(S(C)(=O)=O)nc4)c(F)c(OCCOC)c3[nH]2)S1 (centres unmarked) [Example 92, 2-{2-[6-Fluoro-7-(2-methoxyethoxy)-5-{[6-(methylsulfonyl)pyridin-3-yl]oxy}-1H-indol-2-yl]-4,5-dihydro-1,3-thiazol-5-yl}-N-methylacetamide] |
| – | 195 to 196 | CCOc1cc(Oc2ccc(S(C)(=O)=O)nc2)cc2cc(C3=NCC(CC(N)=O)S3)[nH]c12 (centres unmarked) [Example 100, 2-[2-(7-Ethoxy-5-{[6-(methylsulfonyl)pyridin-3-yl]oxy}-1H-indol-2-yl)-4,5-dihydro-1,3-thiazol-5-yl]acetamide] |
